Reference: patent US8017162B2, “Anti-inflammatory agent” (Oryza Oil & Fat Chemical Co., Ltd., priority 2005, dated 2011)

Columns and labels:
RAW264.7 cells [1] = assay: NO production inhibition test (LPS, Griess Method); format: cell-based, mouse
Protocol: A 200 microliter each of the continuously-cultivated RAW264.7 cells (10^6 cells/mL) should be seeded into 48-well plate. After 24 hours, replace the culture medium with a serum-free culture medium. Then, add the LPS (final concentration: 10 microgram/mL) and samples (Examples 1 & 2), and then cultivate for 24 hours. Collect the supernatant (100 microliter) and determine the amount of NO by the Griess Method.

RAW264.7 cells [2] = assay: PGE2 produced by LPS stimulation in RAW264.7 cells; format: cell-based, mouse; conditions: 0.1 microgram/mL, single substance, P<0.01 vs LPS group
Protocol: Suspend mouse-derived macrophage-like cells RAW264.7 in the culture medium “Minimum Essential Medium (MEM)” containing a 0.1 mM nonessential amino acid mixture, 10% fetal calf serum (FCS), penicillin (100 units/mL), and streptomycin (100 microgram/mL) in concentration of 1×10^6 cells/mL. Then, the cells were seeded into 48-well plate (200 microliter/well).
In 48 to 72 hours after the cultivation, vacuum the culture medium. Then clean the culture medium thrice with the serum-free culture medium (which contains no FCS). Then, add the serum-free culture medium (170 microliter) to each well.
After that, add the LPS solution (10 microlitre) which was prepared to 200 microgram/mL in the serum-free culture medium, to each well (final concentration 10 microgram/mL). Then, add the serum-free culture medium (10 microliter) to the well of the control group. Add 20 microliter each of the red ginger extract sample solution which was prepared to be the concentrations of […] in the serum-free culture medium, and add indomethacin in concentration of 8.9 microgram/mL (equivalent to 25 microM) to three wells, each. (The final concentrations of the red ginger extract are to be 0.1, 0.3, 1, 3, and 10 microgram/mL, and the final concentration of indomethacin is to be 0.89microgram/mL which is equivalent to 2.5 microM). […]

NO production = conditions: concentration of 21.5 to 215 microgram/mL (FIG. 9); cited from earlier work

Row | Structure (SMILES) | NO in supernatant (RAW264.7 cells [1]; 1 μg/mL, LPS 10 microgram/mL, 24 hours, average ± SD) [µM] | NO in supernatant (RAW264.7 cells [1]; 3 μg/mL) [µM] | NO in supernatant (RAW264.7 cells [1]; 10 μg/mL) [µM] | Inhibition ratio (NO production) (RAW264.7 cells [1]; 30 μg/mL) | NO in supernatant (RAW264.7 cells [1]; 30 μg/mL) [µM] | Inhibition ratio (NO production) (RAW264.7 cells [1]; 100 μg/mL) | NO in supernatant (RAW264.7 cells [1]; 100 μg/mL) [µM] | Inhibition ratio of PGE2 production (RAW264.7 cells [2]) [%] | Inhibitory effect on NO production (NO production)
1 | CCCCC[C@H](O)CC(=O)CCc1ccc(O)c(OC)c1 [Example 6-gingerol, 6-gingerol] | 3.50 ± 0.26 | 3.66 ± 0.33 | 3.27 ± 0.26 | (4.3) % | 3.11 ± 0.22 | (17.6) % | 2.81 ± 0.47 | 37.8 | –
2 | Cl.N[C@H]1C(O)O[C@H](CO)[C@@H](O)[C@@H]1O (stereo partly drawn) [glucosamine hydrochloride] | – | – | – | – | – | – | – | – | has the inhibitory effect on NO production
